From patent publication US20150284430A1, “APPLICATION OF SP PEPTIDE OR DERIVATIVE THEREOF IN PREPARING MEDICINES FOR PREVENTING OR TREATING ASTHMA” (priority 2012, published 2015)

System: allergic asthma mouse model induced by a combination of ovalbumin and adjuvant
Experiment: Lung tissue histopathologic examination and lesion score, ovalbumin/aluminium hydroxide allergic asthma mouse model
Assay type: in vivo
Settings: positive medicines group, dexamethasone 0.9 μg/kg·d i.p. every other day x15 from week 15
Protocol: Preparation of sensitized liquid: prepare in a proportion of dissolving 10 ug ovalbumin and 2 mg aluminium hydroxide in 0.5 ml physiological saline, and use it right after being prepared.
On day 1, day 7 and day 14, the mice of all groups (the model group, the preventive administration groups, the treatment administration groups, and the positive medicines group) apart from the blank control group are injected intraperitoneally with 0.5 ml freshly prepared sensitized liquid. The blank control group is injected intraperitoneally with an equal volume of physiological saline.
Since day 21 (i.e., starting from week 4), the mice of all groups apart from the blank control group are placed in a 16 L closed container every fourth days, make the mice inhale 1 wt % ovalbumin physiological saline by ultrasonic nebulization, with an inhalation duration of 25 min/d and a nebulization flow rate of 3 ml/min, for twice a week to induce asthma, and the process continues until week 19. […]
Lung tissue lesions (including bronchia and perivascular interstitial edema, alveolar wall congestion or emphysema) are marked respectively as 1, 2, 3 and 4 in ascending order of severity, 0 stands for no obvious lesions, and 0.5 for extreme mild lesions. All scores are accumulated, and a mean score (±SD) of each mouse in each group is calculated, and a higher score indicates a more severe level of lesions. […]

C[C@@H]1C[C@H]2[C@@H]3CCC4=CC(=O)C=C[C@]4(C)[C@@]3(F)[C@@H](O)C[C@]2(C)[C@@]1(O)C(=O)CO [positive drug, dexamethasone]
inflammatory cells infiltration (histopathology, FIG. 6): infiltration with a few inflammatory cells | pulmonary interstitial edema (histopathology, FIG. 6): mild pulmonary interstitial edema
